In patent US9999616B2 (ZENITH EPIGENETICS LTD., priority 2013, dated 2018):

Columns and labels:
Human AML MV-4-11 cells = experiment: Inhibition of cell proliferation in MV4-11 cells (CellTiter Aqueous One); format: cell-based; conditions: for IC50: MV4-11, 72 h; for Cell Proliferation activity: 72 h
Protocol: MV4-11 cells (CRL-9591) were plated at a density of 5×10^4 cells per well in 96 well flat bottom plates and treated with increasing concentrations of test compound or DMSO (0.1%) in IMDM media containing 10% FBS and penicillin/streptomycin. Triplicate wells were used for each concentration and a well containing only media was used as a control. Plates were incubated at 37° C., 5% CO2 for 72 h before adding 20 µL of the CellTiter Aqueous One Solution (Promega) to each well and incubated at 37° C., 5% CO2 for an additional 3-4 h. The absorbance was read at 490 nm in a spectrophotometer and the percentage of cell titer relative to DMSO-treated cells was calculated after correcting for background by subtracting the blank well's signal. IC50 values were calculated using the GraphPad Prism software.

[1] = tested on: c-myc in Human AML MV4-11 cells; experiment: Inhibition of cMYC expression (mRNA, real-time PCR) in MV4-11 cells; format: cell-based; conditions: 3 h treatment, cMYC mRNA by real-time PCR
Protocol: MV4-11 cells (CRL-9591) were plated at a density of 2.5×10^4 cells per well in 96 well U-bottom plates and treated with increasing concentrations of test compound or DMSO (0.1%) in IMDM media containing 10% FBS and penicillin/streptomycin, and incubated for 3 h at 37′C. Triplicate wells were used for each concentration. Cells were pelleted by centrifugation and harvested using the mRNA Catcher PLUS kit according to manufacturer's instructions. The eluted mRNA isolated was then used in a one-step quantitative real-time PCR reaction, using components of the RNA UltraSense™ One-Step Kit (Life Technologies) together with Applied Biosystems TaqMan® primer-probes for cMYC and Cyclophilin. Real-time PCR plates were run on a ViiA™7 real time PCR machine (Applied Biosystems), data was analyzed, normalizing the Ct values for cMYC to an internal control, prior to determining the fold expression of each sample, relative to the control.

[2] = target: Brd4 bromodomain 1 (BRD4(1)) (Homo sapiens, UniProt O60885); experiment: Inhibition of tetra-acetylated histone H4 binding to Brd4 bromodomain 1, measured by FRET (HTRF); parameters: made in house; host or cells: E. coli BL21(DE3); conditions: 2 h at room temperature
Protocol: Proteins were cloned and overexpressed with a N-terminal 6×His tag, then purified by nickel affinity followed by size exclusion chromatography. Briefly, E. coli BL21(DE3) cells were transformed with a recombinant expression vector encoding N-terminally Nickel affinity tagged bromodomains from Brd2, Brd3, Brd4. Cell cultures were incubated at 37° C. with shaking to the appropriate density and induced overnight with IPTG. The supernatant of lysed cells was loaded onto Ni-IDA column for purification. Eluted protein was pooled, concentrated and further purified by size exclusion chromatography. Fractions representing monomeric protein were pooled, concentrated, aliquoted, and frozen at −80° C. for use in subsequent experiments.
Binding of tetra-acetylated histone H4 and BET bromodomains was confirmed by a Homogenous Time Resolved Fluorescence Resonance Energy Transfer (HTRF®) method. N-terminally His-tagged bromodomains (200 nM) and biotinylated tetra-acetylated histone H4 peptide (25-50 nM, Millipore) were incubated in the presence of Europium Cryptate-labeled streptavidin (Cisbio Cat. #610SAKLB) and XL665-labeled monoclonal anti-His antibody (Cisbio Cat. #61HISXLB) in a white 96 well microtiter plate (Greiner). For inhibition assays, serially diluted test compound was added to these reactions in a 0.2% final concentration of DMSO. Duplicate wells were used for each concentration tested. Final buffer concentrations were 30 mM HEPES pH 7.4, 30 mM NaCl, 0.3 mM CHAPS, 20 mM phosphate pH 7.0, 320 mM KF, 0.08% BSA. After a 2 h incubation at room temperature, fluorescence was measured at 665 and 620 nm with a SynergyH4 plate reader (Biotek). The binding inhibitory activity was shown by a decrease in 665 nm relative to 620 nm fluorescence. IC50 values were determined from a dose response curve.

Row | SMILES | IC50 (Human AML MV-4-11 cells) | IC50 [1] | IC50 [2] | Cell Proliferation activity (Human AML MV-4-11 cells)
1 | Cc1noc(C)c1-c1cc(-c2ccc[nH]c2=O)c2nc[nH]c2c1 [Example Compound 56, 3-(6-(3,5-dimethyl-isoxazol-4-yl)-1H-benzo[d]imidazol-4-yl)pyridin-2(1H)-one] |  |  | 0.3 to 3 µM | Not active
2 | Cc1noc(C)c1-c1cc(-c2c(C)noc2C)c2nn[nH]c2c1 [Example Compound 95, 4,4′-(1H-benzo[d][1,2,3]triazole-4,6-diyl)bis(3,5-dimethylisoxazole)] |  |  | 0.3 to 3 µM | Not active
3 | Cc1ccncc1-c1cc(-c2c(C)noc2C)cc2[nH]c(N3CCN(C)CC3)nc12 [Example Compound 199, 3,5-dimethyl-4-(2-(4-methylpiperazin-1-yl)-4-(4-methylpyridin-3-yl)-1H-benzo[d]imidazol-6-yl)isoxazole] |  |  | 0.3 to 3 µM | 
4 | Cc1ccc(C(=O)N2CCCC2)cc1-c1cc(-c2c(C)noc2C)cc2[nH]c(N3CCCC3)nc12 [Example Compound 218, (3-(6-(3,5-dimethylisoxazol-4-yl)-2-(pyrrolidin-1-yl)-1H-benzo[d]imidazol-4-yl)-4-methylphenyl)(pyrrolidin-1-yl)methanone] |  |  | ≤ 0.3 µM | 
5 | Cc1ccc(C(N)=O)cc1-c1cc(-c2c(C)noc2C)cc2[nH]c(NCc3cccnc3)nc12 [Example Compound 219, 3-(6-(3,5-dimethyl-isoxazol-4-yl)-2-((pyridin-3-ylmethyl)amino)-1H-benzo[d]imidazol-4-yl)-4-methyl-benzamide] |  |  | ≤ 0.3 µM | 
6 | Cc1ccc(C(N)=O)cc1-c1cc(-c2c(C)noc2C)cc2[nH]c(NCc3ccccc3)nc12 [Example Compound 220, 3-(2-(benzyl-amino)-6-(3,5-dimethylisoxazol-4-yl)-1H-benzo[d]imidazol-4-yl)-4-methyl-benzamide] |  |  | ≤ 0.3 µM | 
7 | Cc1noc(C)c1-c1cc(-c2c(C)nn(C)c2C)c2nc(NCc3cccnc3)[nH]c2c1 [Example Compound 221, 6-(3,5-dimethyl-isoxazol-4-yl)-N-(pyridin-3-ylmethyl)-4-(1,3,5-trimethyl-1H-pyrazol-4-yl)-1H-benzo[d] imidazol-2-amine] |  |  | ≤ 0.3 µM | 
8 | Cc1noc(C)c1-c1cc(-c2c(C)noc2C)c2nc(NC3CCN(C)CC3)[nH]c2c1 [Example Compound 232, 4,6-bis(3,5-dimethyl-isoxazol-4-yl)-N-(1-methyl-piperidin-4-yl)-1H-benzo[d] imidazol-2-amine] | 0.3 to 3 µM |  | ≤ 0.3 µM | 

Now from value to compound, other results behind:

Row | IC50 (Human AML MV-4-11 cells) | IC50 [1] | IC50 [2] | SMILES | Cell Proliferation activity (Human AML MV-4-11 cells)
9 | 3 to 30 µM | 0.3 to 3 µM | ≤ 0.3 µM | Cc1noc(C)c1-c1cc(-c2cnn(C)c2)c2nc[nH]c2c1 [Example Compound 29, 3,5-dimethyl-4-(4-(1-methyl-1H-pyrazol-4-yl)-1H-benzo[d]imidazol-6-yl)isoxazole] | 
10 | 0.3 to 3 µM | 0.3 to 3 µM | ≤ 0.3 µM | Cc1noc(C)c1CNc1cc(-c2c(C)noc2C)cc2[nH]cnc12 [Example Compound 39, 6-(3,5-dimethyl-isoxazol-4-yl)-N-((3,5-dimethyl-isoxazol-4-yl)methyl)-1H-benzo[d] imidazol-4-amine] | 
11 | 3 to 30 µM |  | ≤ 0.3 µM | Cc1noc(C)c1-c1cc(Nc2ccc(Cl)cc2)c2nc[nH]c2c1 [Example Compound 40, N-(4-chlorophenyl)-6-(3,5-dimethyl-isoxazol-4-yl)-1H-benzo[d] imidazol-4-amine] | 
12 | 0.3 to 3 µM | 0.3 to 3 µM | ≤ 0.3 µM | Cc1noc(C)c1-c1cc(NCc2ccccn2)c2nc[nH]c2c1 [Example Compound 47, 6-(3,5-dimethyl-isoxazol-4-yl)-N-(pyridin-2-ylmethyl)-1H-benzo[d] imidazol-4-amine] | 
13 | 0.3 to 3 µM | ≤ 0.3 µM | ≤ 0.3 µM | CCNc1nc2c(-c3cccnc3C)cc(-c3c(C)noc3C)cc2[nH]1 [Example Compound 100, 6-(3,5-dimethylisoxazol-4-yl)-N-ethyl-4-(2-methylpyridin-3-yl)-1H-benzo[d]imidazol-2-amine] | 
14 |  |  | ≤ 0.3 µM | Cc1noc(C)c1-c1cc(-c2c(C)nn(C)c2C)c2nc(N3CCC3)[nH]c2c1 [Example Compound 217] | 
